Paper PMC9627135 (Cancer discovery, 2022)

Experiments:
HOXA9/10 expression = assay: Time course of HOXA9/10 expression; format: cell-based; settings: Supplementary Fig. S6D, S6E
[1] = test system: primary human hepatocytes; settings: cited from earlier work
ENL-FKBP12(F36V) = ENL-FKBP12(F36V) (Homo sapiens, UniProt Q03111); assay: dTAG-mediated degradation of ENL-FKBP12; format: cell-based; settings: treatment for 6 or 24 hours

With `CC(C)N(C[C@H]1O[C@@H](n2cnc3c(N)ncnc32)[C@H](O)[C@@H]1O)[C@H]1C[C@@H](CCc2nc3cc(C(C)(C)C)ccc3[nH]2)C1` [EPZ-5676] the “kinetics of suppression of HOXA9/10 expression” value (HOXA9/10 expression) was “suppressed expression of the same genes at much later time points”.

In the case of `C[C@H]1CCCN1Cc1nc2cc(NC(=O)c3ccc4c(cnn4C)c3)ccc2[nH]1` [SGC-iMLLT], the “half-life in primary human hepatocytes” value [1] is given as “modest half-life”.

For `CC[C@H](C(=O)N1CCCC[C@H]1C(=O)O[C@H](CCc1ccc(OC)c(OC)c1)c1ccccc1OCC(=O)NCCCCCCOc1cccc2c1C(=O)N(C1CCC(=O)NC1=O)C2=O)c1cc(OC)c(OC)c(OC)c1` (stereo partly drawn) [dTAG13], the “level of ENL-FKBP12 proteins” value (ENL-FKBP12(F36V)) was “substantial decrease of ENL-FKBP12 proteins”.
